PubChem BioAssay (NCI)
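A five-concentration, 48-hour dose response in 96-well plates underlies each endpoint, interpolated linearly between surrounding concentrations. GI50 = concentration required for 50% inhibition of growth. TGI: concentration producing complete growth inhibition.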

Legend:
Test in all cases: inhibition of tumour cell growth, NCI panel, 48 h
SK-MEL-2 melanoma = test system: SK-MEL-2 melanoma
ACHN renal = test system: ACHN renal
HT29 colon = test system: HT29 colon
MCF7 breast = test system: MCF7 breast
786-0 renal = test system: 786-0 renal
SK-MEL-5 melanoma = test system: SK-MEL-5 melanoma
LOX IMVI melanoma = test system: LOX IMVI melanoma
MDA-N = test system: MDA-N
COLO 205 colon = test system: COLO 205 colon
UACC-62 melanoma = test system: UACC-62 melanoma
HOP-92 NSCLC = test system: HOP-92 NSCLC

Structure (SMILES) | TGI (SK-MEL-2 melanoma) [µM] | TGI (ACHN renal) [µM] | TGI (HT29 colon) [µM] | TGI (MCF7 breast) [µM] | TGI (786-0 renal) [µM] | TGI (SK-MEL-5 melanoma) [µM] | TGI (LOX IMVI melanoma) [µM] | TGI (MDA-N) [µM] | TGI (COLO 205 colon) [µM] | TGI (UACC-62 melanoma) [µM] | TGI (HOP-92 NSCLC) [µM] | GI50 (MCF7 breast) [µM] | GI50 (HOP-92 NSCLC) [µM] | GI50 (COLO 205 colon) [µM]
CCOC(=O)C(Cc1ccc(OC(=O)OC(C)(C)C)cc1)NC(=O)OC(C)(C)C (stereo not drawn) | > 100 | > 100 | > 100 | > 100 | > 100 | > 100 | > 100 | > 100 | > 100 | > 100 | – | – | – | –
Clc1ccc(-c2cn3c(nc4ccccc43)c(/C=C/c3ccco3)n2)cc1 | 41.6 | > 100 | > 100 | > 100 | > 100 | > 100 | > 100 | > 100 | > 100 | > 100 | 50.4 | – | – | –
COc1ccccc1NC(=O)CC(=O)N1N=C(N2c3ccccc3Sc3ccccc32)CC1c1ccccc1 (stereo not drawn) | > 100 | > 100 | > 100 | > 100 | > 100 | > 100 | – | – | > 100 | > 100 | > 100 | – | – | –
Cc1ccc(C(=O)Nc2ccc(CP(=O)(O)O)cc2CP(=O)(O)O)cc1NC(=O)Nc1cc(C(=O)Nc2ccc(CP(=O)(O)O)cc2CP(=O)(O)O)ccc1C | > 100 | > 100 | > 100 | > 100 | > 100 | > 100 | > 100 | > 100 | > 100 | > 100 | – | – | – | –
C[C@@H]1C(=O)C[C@H]2C(C)(C)CCC[C@]2(C)[C@@]1(O)CCc1ccoc1 | > 100 | > 100 | > 100 | > 100 | > 100 | > 100 | > 100 | > 100 | > 100 | > 100 | > 100 | – | – | –
Cc1sc2c(c1C)/C(=N\O)c1cccn1-2 | > 100 | > 100 | > 100 | > 100 | 52.3 | > 100 | > 100 | > 100 | > 100 | > 100 | – | – | – | –
CCCCCCCCCCCCCCCCOP(=O)(O)OCC(N)C(=O)O (stereo not drawn) | 40.5 | 32.7 | > 100 | – | 41.6 | 32.6 | 28.2 | 43.1 | 38.1 | 37 | 38.4 | – | – | –
O=c1ccn(C2OC(CO)C(O)C2F)c(=O)n1Cc1ccccc1 (stereo not drawn) | – | > 100 | > 100 | > 100 | > 100 | > 100 | > 100 | > 100 | > 100 | > 100 | – | – | – | –
CC(O)(P(=O)(O)O)P(=O)(O)OCC(O)CN1CCOCC1 (stereo not drawn) | – | > 100 | > 100 | > 100 | > 100 | – | > 100 | > 100 | > 100 | > 100 | > 100 | – | – | –
CCOC(=O)c1nc2ccc(C(F)(F)F)cc2nc1Nc1ccc(Cl)c(Cl)c1 | – | > 100 | > 100 | > 100 | > 100 | > 100 | > 100 | > 100 | > 100 | > 100 | > 100 | – | – | –
N=c1c2c(=S)n(-c3ccccc3)c(=S)n(-c3ccccc3)c2nc(SCCN2CCCC2)n1-c1ccccc1 | 13.9 | 3.26 | 3.6 | – | 2 | 12.1 | 3.46 | 4.36 | 3.17 | 3.04 | 3.48 | – | – | –
COc1cc(OC)c2c3c(OC)cc(OC)c4c(=O)c(O)c(C[C@@H](C)O)c(c5c(C[C@@H](C)O)c(O)c(=O)c1c25)c43 | 68 | > 100 | 73 | 48.6 | 44.8 | 28.4 | 35.3 | 34 | 16.7 | – | 35.4 | – | – | –
O=C(c1ccc(Cl)cc1)N(C(=S)N1CCN(c2ccccn2)CC1)C1CCCCC1 | > 100 | > 100 | > 100 | – | > 100 | > 100 | > 100 | – | > 100 | > 100 | > 100 | – | – | –
C=C(C)COC1CCCCO1 (stereo not drawn) | > 100 | > 100 | > 100 | > 100 | > 100 | > 100 | > 100 | > 100 | > 100 | > 100 | – | – | – | –
Nc1[nH]nc2nc3ccccc3nc12 | > 100 | > 100 | > 100 | > 100 | – | > 100 | > 100 | > 100 | > 100 | > 100 | > 100 | – | – | –
O=C(/C=C(\S/C=C(/c1ccccc1)N1CCn2c(C(=O)c3ccccc3)c(C(=O)c3ccccc3)c(C(=O)c3ccccc3)c21)C(=O)c1ccccc1)c1ccccc1 | > 10 | > 10 | > 10 | > 10 | > 10 | > 10 | – | > 10 | > 10 | > 10 | > 10 | – | – | –
NC1=NS(=O)(=O)Nc2nc(-c3ccccc3)[nH]c21 | > 100 | > 100 | > 100 | – | > 100 | > 100 | > 100 | – | > 100 | > 100 | > 100 | – | – | –
C=C(NC(=O)C(=C)NC(=O)c1csc(C2=NC3c4csc(n4)C4NC(=O)c5csc(n5)C(C(C)(O)C(C)O)NC(=O)C5CSC(=N5)/C(=C/C)NC(=O)C(C(C)O)NC(=O)c5csc(n5)C3(CC2)NC(=O)C(C)NC(=O)C(=C)NC(=O)C(C)NC(=O)C(C(C)CC)NC2C=Cc3c(C(C)O)cc(nc3C2O)C(=O)OC4C)n1)C(N)=O (stereo not drawn) | 4.12 | 11.7 | 3.14 | > 100 | 3.26 | 2.58 | 2.45 | – | 0.836 | 2.42 | > 100 | 6.27 | 8.07 | 0.299
C=C1C(=O)O[C@@H]2[C@H](O)[C@@H](C)[C@@H]3C=CC(=O)[C@@]3(C)[C@@H](OC(=O)/C(C)=C/C)[C@H]12 | 2.78 | – | 4.15 | 5.15 | – | 4.43 | 2.88 | – | 1.11 | 1.11 | 1.78 | – | – | –
COC1=CC2(CC(OC)=C1OC)OC21COc2ccccc2C1=O (stereo not drawn) | > 100 | > 100 | > 100 | > 100 | > 100 | > 100 | > 100 | – | > 100 | > 100 | > 100 | – | – | –
Nc1ncn2c(n1)nc1ccccc12 | > 100 | > 100 | > 100 | > 100 | > 100 | > 100 | – | > 100 | > 100 | > 100 | > 100 | – | – | –
